Experimental data taken from US12351587B2, “Bicyclic compound as RIP-1 kinase inhibitor and application thereof” (MEDSHINE DISCOVERY INC., priority 2019, dated 2025).

How the values were obtained:
[1] = test system: All other kinases (411 of 413 kinases); experiment: Kinase selectivity assay (Eurofins, 33P radiolabeled kinase activity): all other kinases; type: biochemical; conditions: WX009 1 μM, ATP 10 μM
Experimental: (§1) The purpose of this assay was to detect the in vitro inhibitory activity of WX009 on a variety of kinases. The kinases used in this assay included 413 kinases, and the activity detection method was provided by Eurofins Pharma Discovery Service A method of detecting ^33P radiolabeled kinase activity was used for the assay. The concentration of WX009 was 1 μM, and the concentration of ATP was 10 μM.

[2] = Pharmacokinetic parameters in dogs; type: in vivo; conditions: beagle, plasma, dog
Experimental: Four healthy adult beagle dogs were selected and randomly divided into two groups. One group was given the assay compound by intravenous injection, and the other group was given the assay compound by gavage. Plasma samples were collected respectively from animals in the intravenous group and gavage group at 0.083, 0.25, 0.5, 1.0, 2.0, 4.0, 6.0, 8.0, 24 hours after administration. The blood concentration was determined by LC-MS/MS method. Relevant pharmacokinetic parameters were calculated by WinNonlin™ Version 6.3 (Pharsight. Mountain View, CA) pharmacokinetic software using non-compartmental model and linear logarithmic trapezoidal method. AUC0-last represents the area under the plasma concentration-time curve from zero time point to the last detectable concentration time point; Cmax represents the peak concentration; Tmax represents the time to reach the peak; T1/2 represents the half-life; CL represents the clearance rate; Vdss represents apparent volume of distribution; p.o. represents per os; i.v. represents intravenous injection; and F % represents oral bioavailability.

[3] = Plasma protein binding rate (PPB), human plasma; type: in vitro ADME; conditions: 2 μM, dialysis 4 hours 37° C.
Experimental: 796 μL of bank plasma from humans, SD rats and CD-1 mice (plasma purchased from BioreclamationIVT) were weighed, and the assay compound working solution or warfarin working solution was added so that the final concentration of the assay compound and warfarin in the plasma sample was 2 μM. The samples were mixed thoroughly. The final concentration of DMSO in the organic phase was 0.5%, 50 μL of plasma samples of the assay compound and warfarin were pipetted to a sample receiving plate, and the corresponding volume of the corresponding blank plasma or buffer was added immediately, so that the final volume in each sample well was 100 μL, wherein the volume ratio of plasma:dialysis buffer was 1:1. Stop solution was then added to these samples. These samples were used as T0 samples for determination of recovery and stability. The plasma samples of the assay compound and warfarin were added to the dosing end of each dialysis well, and blank dialysis buffer was added to the corresponding receiving end of the dialysis well. […] All samples were subjected to protein precipitation, and then analyzed by LC/MS/MS. Unbound rate (% Unbound), bound rate (% Bound), and recovery rate (% Recovery) of the compound were calculated using the following formulae: % Unbound=100*FC/TC, % Bond=100−% Unbound, and % Recovery=100*[…]/T0, […]

[4] = Pharmacokinetics in C57BL/6 mice; type: in vivo; conditions: C57BL/6, plasma, mouse
Experimental: Eight healthy adult C57BL/6 mice (6-9 weeks old, purchased from Shanghai Lingchang Biotechnology Co., Ltd.) were selected, and randomly divided into two groups, 4 mice in each group (n=2, cross blood sampling). One group was given 0.5 mg/kg of the assay compound by intravenous injection, and the other group was given 1 mg/kg of the assay compound by gavage. Plasma samples were collected respectively from animals in the intravenous group and gavage group at 0.083, 0.25, 0.5, 1.0, 2.0, 4.0, 6.0, 8.0, 24 hours after administration. The blood concentration was determined by LC-MS/MS method. Relevant pharmacokinetic parameters were calculated by WinNonlin™ Version 6.3 (Pharsight, Mountain View, CA) pharmacokinetic software using non-compartmental model and linear logarithmic trapezoidal method. AUC0-last represents the area under the plasma concentration-time curve from zero time point to the last detectable concentration time point; Cmax represents the peak concentration; Tmax represents the time to reach the peak; T1/2 represents the half-life. CL represents the clearance rate; Tlast represents the last quantifiable time point; p.o. represents per os; i.v. represents intravenous injection; and F % represents oral bioavailability.

LIMK2 = molecular target: T1, LIMK2 (Homo sapiens, UniProt P53671); experiment: Kinase selectivity assay (Eurofins, 33P radiolabeled kinase activity): LIMK2; type: biochemical; conditions: WX009 1 μM, ATP 10 μM, read-out: Inhibition rate
T1 construct: purchased Eurofins Pharma Discovery Service
T1 sequence (P53671 whole entry, species assumed): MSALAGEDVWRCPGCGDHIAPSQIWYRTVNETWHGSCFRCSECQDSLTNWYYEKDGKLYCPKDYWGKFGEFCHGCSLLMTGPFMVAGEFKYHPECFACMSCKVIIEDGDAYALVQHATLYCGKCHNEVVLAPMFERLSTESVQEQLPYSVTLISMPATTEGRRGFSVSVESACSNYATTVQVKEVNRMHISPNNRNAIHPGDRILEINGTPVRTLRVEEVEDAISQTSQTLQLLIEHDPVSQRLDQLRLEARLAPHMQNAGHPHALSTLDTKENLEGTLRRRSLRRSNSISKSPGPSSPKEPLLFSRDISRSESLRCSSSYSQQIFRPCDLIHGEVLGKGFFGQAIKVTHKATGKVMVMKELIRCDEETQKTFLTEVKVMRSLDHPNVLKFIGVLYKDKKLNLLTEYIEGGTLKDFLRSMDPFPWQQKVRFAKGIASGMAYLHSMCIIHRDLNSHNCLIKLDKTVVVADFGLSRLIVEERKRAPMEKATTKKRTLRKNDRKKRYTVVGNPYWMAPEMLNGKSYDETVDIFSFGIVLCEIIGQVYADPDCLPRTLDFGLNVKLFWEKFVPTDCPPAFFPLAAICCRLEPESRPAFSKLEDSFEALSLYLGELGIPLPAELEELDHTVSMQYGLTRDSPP
Experimental: as §1

L929 cells = experiment: In vitro activity assay of mouse RIP1: L929 cell TNFα/QVD-OPh-induced necroptosis; type: cell-based; conditions: TNF-α 50 ng/mL + Q-VD 50 μM, 24 h, CellTiter Glo
Experimental: Assay Example 2: In Vitro Activity Assay of Mouse RIP1
L929 (purchased from ATCC, Item No.: CCL-1)
Instrument Microplate reader (Perkin Elmer, Envision) Formulation of Reagents L929 cell complete medium: EMEM+10% horse serum (volume ratio)+1% double antibiotics (volume ratio) Assay Step • 1. The cultured L929 cells were digested with trypsin, centrifuged, resuspended in complete culture medium, and then counted. The cell concentration was then diluted to 1×10^5/mL with complete culture medium. • 2. The cell suspension was added to a 96-well plate at 100 μL per well and incubated at 37° C. and 5% CO2 for 24 h. • 3. Different concentrations of assay compounds were added to each well, and dimethyl sulfoxide was added to the control group. The plate was incubated at 37° C. and 5% CO2 for 1 h. • 4. To each well were added TNF-α at a final concentration of 50 ng/mL and Q-VD at a final concentration of 50 μM, and the plate was incubated at 37° C. and 5% CO2 for 24 h. • 5. To each well was added 50 μL of CellTiter Glo […], and the plate was shaken in the dark for 10 min. • 6. The plate was read on the microplate reader.

For `CN1C(=S)[C@@H](NC(=O)c2ncn(Cc3ccccc3)n2)COc2cccnc21` [WX009], the Inhibition rate [1] was <50%, the AUC(0-t) ([2]; 3 mg/kg, iv = 3 mpk) was 20.8 µM·h and the clearance ([2]; 3 mg/kg, iv = 3 mpk) was 0.372 L/h/kg. For the same compound, the half-life ([2]; 3 mg/kg, iv = 3 mpk) was 5.5 h, the Vd ([2]; 3 mg/kg, iv = 3 mpk, read-out: Vdss) was 2.4 L/kg and the AUC(0-t) ([2]; 10 mg/kg, po = 10 mpk) was 23.6 µM·h. For the same compound, the Cmax ([2]; 10 mg/kg, po = 10 mpk) was 0.284 µM, the Tmax ([2]; 10 mg/kg, po = 10 mpk) was 2 h and the bioavailability ([2]; po = 10 mpk vs iv = 3 mpk) was 34.2%. For the same compound, the PPB_Unbound [3] was 5.7%, the AUC(0-t) ([4]; iv, i.v. 0.5 mg/kg) was 2.21 µM·h and the clearance ([4]; iv, i.v. 0.5 mg/kg) was 0.564 L/h/kg. The half-life ([4]; iv, i.v. 0.5 mg/kg) was 1.4 h, the Vd ([4]; iv, i.v. 0.5 mg/kg, read-out: Vdss) was 1.1 L/kg and the bioavailability ([4]; oral, p.o. 1 mg/kg vs i.v. 0.5 mg/kg) was 89.1%. It also gave an AUC(0-t) ([4]; po, p.o. 1 mg/kg) of 3.85 µM·h, a Cmax ([4]; po, p.o. 1 mg/kg) of 1.5 µM and a Tmax ([4]; po, p.o. 1 mg/kg) of 0.5 h. For the same compound, the inhibition at 1 µM (LIMK2) was 50 to 79% and the IC50 (L929 cells) was 0.103 µM.
